In publication PMC8151329, “Modulation of γ-Secretase Activity by a Carborane-Based Flurbiprofen Analogue” (Molecules, 2021):
Read-outs that look alike come from different tables or passages of the source.

Tests used:
[1] = parameters: method as in PMID 25513709; conditions: shake flask; cited from earlier work
[2] = test system: HCT116; assay: MTT cytotoxicity test HCT116; assay type: cell-based, human; conditions: HCT116, 48 h, up to 100 µM, mean ± SD
Method: (§1) The used human tumour (i.e., melanoma A375, colon cancer HCT116 and HT29, and glioblastoma LN229 and U251) and rodent tumour (i.e., mouse melanoma B16 and B16–F10; rat glioma C6) cell lines as well as murine transformed non-malignant fibroblast cell line NIH/3T3 differed in their rates of COX-1 and COX-2 expression.
(§2) Cytotoxicity was determined by conducting MTT and CV assays using cell viability as an indicator [67]. All measurements were carried out in triplicates.

[3] = target: T1, human COX-2 (Homo sapiens, UniProt P35354); assay: COX Fluorescent Inhibitor Screening Assay Kit, COX-2; assay type: biochemical
T1 construct: purchased Cayman Chemical Company 700100
T1 sequence (P35354 18-604): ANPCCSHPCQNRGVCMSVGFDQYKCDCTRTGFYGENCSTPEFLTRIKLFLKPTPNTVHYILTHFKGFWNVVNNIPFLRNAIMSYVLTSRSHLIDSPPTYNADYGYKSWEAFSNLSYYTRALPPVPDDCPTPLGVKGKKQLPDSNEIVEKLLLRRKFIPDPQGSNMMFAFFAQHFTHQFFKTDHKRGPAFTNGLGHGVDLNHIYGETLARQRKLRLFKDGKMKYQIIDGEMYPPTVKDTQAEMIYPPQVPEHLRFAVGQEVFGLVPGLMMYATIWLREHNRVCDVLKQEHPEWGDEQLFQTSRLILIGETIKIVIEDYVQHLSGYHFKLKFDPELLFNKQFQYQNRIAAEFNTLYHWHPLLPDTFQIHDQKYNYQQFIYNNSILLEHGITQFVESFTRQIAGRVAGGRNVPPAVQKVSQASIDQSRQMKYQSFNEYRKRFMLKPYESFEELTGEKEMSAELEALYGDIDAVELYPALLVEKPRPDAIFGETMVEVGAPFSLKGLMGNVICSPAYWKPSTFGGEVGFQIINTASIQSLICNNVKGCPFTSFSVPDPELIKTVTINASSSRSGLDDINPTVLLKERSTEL

[4] = test system: U251; assay: MTT cytotoxicity test U251; assay type: cell-based, human; conditions: U251, 48 h, up to 100 µM, mean ± SD
Method: as §1, §2

[5] = test system: B16; assay: MTT cytotoxicity test B16; assay type: cell-based, mouse; conditions: B16, 48 h, up to 100 µM, mean ± SD
Method: as §1, §2

[6] = test system: NIH/3T3; assay: MTT cytotoxicity test NIH/3T3; assay type: cell-based, mouse; conditions: NIH/3T3, 48 h, up to 100 µM, mean ± SD
Method: as §1, §2

[7] = test system: HT29; assay: MTT cytotoxicity test HT29; assay type: cell-based, human; conditions: HT29, 48 h, up to 100 µM, mean ± SD
Method: as §1, §2

[8] = test system: A375; assay: MTT cytotoxicity test A375; assay type: cell-based, human; conditions: A375, 48 h, up to 100 µM, mean ± SD
Method: as §1, §2

[9] = test system: C6; assay: MTT cytotoxicity test C6; assay type: cell-based, rat; conditions: C6, 48 h, up to 100 µM, mean ± SD
Method: as §1, §2

[10] = target: T2, ovine COX-1 (Ovis aries, UniProt P05979); assay: COX Fluorescent Inhibitor Screening Assay Kit, COX-1; assay type: biochemical
T2 construct: purchased Cayman Chemical Company 700100
T2 sequence (P05979 25-600): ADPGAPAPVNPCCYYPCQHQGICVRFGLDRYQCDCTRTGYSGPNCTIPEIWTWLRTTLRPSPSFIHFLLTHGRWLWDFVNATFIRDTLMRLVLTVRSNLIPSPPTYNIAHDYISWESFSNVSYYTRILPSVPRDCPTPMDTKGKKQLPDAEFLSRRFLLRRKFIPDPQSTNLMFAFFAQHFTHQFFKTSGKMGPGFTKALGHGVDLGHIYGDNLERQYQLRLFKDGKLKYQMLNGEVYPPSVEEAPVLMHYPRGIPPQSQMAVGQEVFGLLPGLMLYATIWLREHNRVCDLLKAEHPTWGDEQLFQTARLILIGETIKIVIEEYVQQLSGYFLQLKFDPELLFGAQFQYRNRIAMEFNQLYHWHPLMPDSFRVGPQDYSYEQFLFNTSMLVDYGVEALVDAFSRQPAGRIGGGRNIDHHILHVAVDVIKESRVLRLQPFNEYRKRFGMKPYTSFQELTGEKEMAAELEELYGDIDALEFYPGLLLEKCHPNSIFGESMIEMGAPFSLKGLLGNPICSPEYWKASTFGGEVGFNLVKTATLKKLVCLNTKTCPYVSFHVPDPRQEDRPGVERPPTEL
Method: In this work, 100 µM arachidonic acid was applied according to the manufacturer’s instructions for the “COX Fluorescent Inhibitor Screening Assay Kit”.

[11] = test system: B16–F10; assay: MTT cytotoxicity test B16–F10; assay type: cell-based, mouse; conditions: B16–F10, 48 h, up to 100 µM, mean ± SD
Method: as §1, §2

[12] = target: T3, γ-secretase (Homo sapiens, UniProt P49768); assay type: cell-based; conditions: HEK/sw cells
T3 construct: endogenous in cells; host or cells: HEK293 cells stably overexpressing Swedish-mutant APP (HEK/sw)
Method: The γ-secretase modulator (GSM) activity of compound 5 was tested on human embryonic kidney (HEK) 293 cells stably overexpressing ”Swedish mutant” APP (HEK/sw), a well-established cell culture model to assess GSM activity. The effect of compound 5 on Aβ production was analysed in comparison to flurbiprofen over a relevant and cell tolerable concentration range (Figure 1).
Nearly confluent (80%) HEK/sw cells were treated with the indicated concentrations of compound 5 or flurbiprofen ((±)-2-fluoro-α-methyl-4-biphenylacetic acid; F8514, Sigma–Aldrich, St. Louis, MO, USA) as described before. Cells treated with DMSO or 1 µM GSM-1 were used as negative and positive controls, respectively. After overnight treatment, the conditioned medium was collected, cleared by centrifugation (10 min, 4 °C, 16,000× g), and the levels of secreted Aβ38, Aβ40, and Aβ42 were analysed using an established Aβ species-specific sandwich immunoassay purchase from Meso Scale Discovery (MSD, Rockville, MD, USA).

[13] = logD7.4 by HPLC method; assay type: physicochemical; conditions: pH 7.4
Text: The measured variances in logD7.4 measurements between the two compounds and the two methods lie in the typical range of the method, and both compounds can be seen as equally hydrophobic. This confirms that the replacement of a phenyl ring with a carborane moiety indeed increased the hydrophobicity and could therefore result in an increased BBB penetration of compound 5 compared to flurbiprofen.
In both cases, the eluent consisted of methanol and a 0.01 M phosphate buffer (pH = 7.4); the applied gradient was 0 min at 70% methanol, 10 min at 100% methanol, 20 min at 100% methanol at a flow rate of 0.6 mL/min.

[14] = test system: LN229; assay: MTT cytotoxicity test LN229; assay type: cell-based, human; conditions: LN229, 48 h, up to 100 µM, mean ± SD
Method: as §1, §2

[15] = enzyme-based assay, result in words

Molecule | logD7.4 [1] | IC50 [2] [µM] | inhibitory activity on COX-2 [3, 15] | IC50 ([3]; human COX-2, fluorescence kit, 100 µM arachidonic acid, read-out: IC50 inhibition of COX-2) [µM] | IC50 [4] [µM] | IC50 [5] [µM] | IC50 [6] [µM] | IC50 [7] [µM] | IC50 [8] [µM] | IC50 [9] [µM] | inhibitory activity on COX-1 [10, 15] | IC50 ([10]; ovine COX-1, fluorescence kit, 100 µM arachidonic acid, read-out: IC50 inhibition of COX-1) [µM] | IC50 [11] [µM] | sum of all measured Aβ species (Aβ38, Aβ40 and Aβ42) vs DMSO control ([12]; 150 µM) | effect on Aβ42:Aβ40 ratio ([12]; extracellular Aβ) | ratio of short Aβ38 to longer Aβ42 (γ-secretase processivity) ([12]; overnight treatment) | effect on Aβ42 (ratio of total Aβ) ([12]; overnight treatment, conditioned medium) | logD7.4 ([13]; HPLC method 1: Chromolith Speed ROD RP-18E 50) | logD7.4 ([13]; HPLC method 2 (standard conditions): Asahipak ODP-50 4B 4.6 × 50) | IC50 [14] [µM]
CC(C(=O)O)c1ccc(-c2ccccc2)c(F)c1 (racemic) [Flurbiprofen, (±)-2-fluoro-α-methyl-4-biphenylacetic acid] | 0.91 | – | – | – | – | – | – | – | – | – | – | – | – | – | – | – | – | – | – | –
2-[4-(1,7-Dicarba-closo-dodecaboran-9-yl(12))phenyl]propionic acid [Compound 5] | – | > 100 | No inhibitory activity | > 100 | 77.5 ± 7.2 | 79 ± 2.4 | 90 ± 10 | > 100 | 96 ± 5.9 | 92.8 ± 4.8 | No inhibitory activity | > 100 | 74.7 ± 0.9 | did not decrease significantly | lowering | increased | clear dose-dependent decrease | 2.00 | 1.86 | 95 ± 7.1
